From article PMC12993615 (The journal of pain, 2024)

Key:
[1] = system: oxaliplatin-induced mechanical allodynia; test: Acute dosing in established OIPN, von-Frey paw withdrawal threshold; format: in vivo, male Sprague Dawley rats; conditions: for PWT response versus vehicle: 2 hours
Description: OXA (Tocris Bioscience) was dissolved in 5% dextrose (Sigma-Aldrich) and administered intraperitoneally (IP) at a volume of 6 mL/kg. […] AM251 (CB1 antagonist; Tocris Bioscience), AM630 (CB2 antagonist; Tocris Bioscience), GW6471 (PPARα antagonist; Tocris Bioscience), and AMG9810 (TRPV1 antagonist; Tocris Bioscience) were dissolved in saline with 4% dimethyl sulfoxide and delivered IP. Male Sprague Dawley rats (150–210 g) were housed in groups of 4 in intra-ventilated Perspex home cages. Humidity, temperature (21 ± 1 °C), and lighting (light-dark cycle of 12:12 hours) were controlled and maintained in the home cages, with food and water available ad libitum. Rats acclimatised to the home cages for at least 1 week. All experiments were carried out according to the Animals (Scientific Procedures) Act, 1986 (U.K. Government Home Office). The study was performed under the Home Office project licence number PP0847012. OIPN was established with a single dose of OXA (10 mg/kg, IP). […] Tactile allodynia (primary outcome measure) was assessed using paw withdrawal threshold (PWT), a measure of pain sensitivity. PWT was evaluated using calibrated von-Frey monofilaments (Touch-Test Sensory Evaluator; Scientific Marketing Associates) applied to the plantar surface of the left hind paw. PWT was determined by increasing and decreasing stimulus intensity and estimated using Dixon’s up-down method.[38],[39] To acquire baseline readings, pain behaviour was assessed on 3 consecutive days (Days −3, −2, −1). The mean of Day −2 and Day −1 was considered the healthy baseline (HBL) prior to OIPN induction. On Days 5 and 6 after OXA injection, thresholds were reassessed. The mean of Days 5 and 6 was considered the neuropathic baseline (NPB). Animals were then ranked and randomised (based on a Latin square design) to treatment groups according to the percentage change of the mean thresholds observed in the NPB compared to the HBL. NPB expressed as a percentage change from HBL was calculated as follows (HBL-NPB)/HBL*100. All behavioural assessment was done by an experimenter blinded to the identity of the treatment. Separate people were responsible for dosing and assessment/data analysis.

[2] = target: T1, CCK2 [cholecystokinin B receptor] (Homo sapiens, UniProt P32239); test: Secondary pharmacology panel (87 targets); format: binding; conditions: test concentration 30 µM
T1 sequence (P32239 1-447): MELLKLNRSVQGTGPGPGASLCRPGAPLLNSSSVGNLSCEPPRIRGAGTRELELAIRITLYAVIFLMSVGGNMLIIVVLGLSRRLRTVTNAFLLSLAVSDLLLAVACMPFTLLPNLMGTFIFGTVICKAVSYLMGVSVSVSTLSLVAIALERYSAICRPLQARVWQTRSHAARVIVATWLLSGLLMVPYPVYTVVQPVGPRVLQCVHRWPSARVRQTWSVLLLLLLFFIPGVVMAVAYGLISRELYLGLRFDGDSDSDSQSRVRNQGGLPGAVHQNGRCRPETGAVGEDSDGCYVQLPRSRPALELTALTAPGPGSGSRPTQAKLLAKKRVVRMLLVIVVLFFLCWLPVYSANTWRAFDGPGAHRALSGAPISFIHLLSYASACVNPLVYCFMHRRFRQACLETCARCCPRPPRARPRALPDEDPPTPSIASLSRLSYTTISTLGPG
Description: (§1) Findings were considered significant if ≥50% inhibition of ligand binding or ≥50% stimulation/inhibition were shown in biochemical assays. Those receptors with values ≥50% were further evaluated for binding and functional half-maximal inhibitory concentrations (IC50).

cathepsin G = target: T2, cathepsin G (Homo sapiens, UniProt P08311); test: Secondary pharmacology panel (87 targets); format: binding; conditions: test concentration 30 µM
T2 sequence (P08311 21-255): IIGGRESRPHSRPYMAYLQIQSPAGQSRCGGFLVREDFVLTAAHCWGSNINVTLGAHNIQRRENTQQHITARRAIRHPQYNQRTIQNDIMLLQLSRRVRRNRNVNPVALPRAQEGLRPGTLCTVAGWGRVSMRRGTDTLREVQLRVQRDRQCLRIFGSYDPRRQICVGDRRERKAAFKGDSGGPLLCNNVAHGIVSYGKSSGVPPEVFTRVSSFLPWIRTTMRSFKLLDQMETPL
Description: as §1

[3] = target: T3, CCK1 [cholecystokinin A receptor] (Homo sapiens, UniProt P32238); test: Secondary pharmacology panel (87 targets); format: binding; conditions: test concentration 30 µM
T3 sequence (P32238 1-428): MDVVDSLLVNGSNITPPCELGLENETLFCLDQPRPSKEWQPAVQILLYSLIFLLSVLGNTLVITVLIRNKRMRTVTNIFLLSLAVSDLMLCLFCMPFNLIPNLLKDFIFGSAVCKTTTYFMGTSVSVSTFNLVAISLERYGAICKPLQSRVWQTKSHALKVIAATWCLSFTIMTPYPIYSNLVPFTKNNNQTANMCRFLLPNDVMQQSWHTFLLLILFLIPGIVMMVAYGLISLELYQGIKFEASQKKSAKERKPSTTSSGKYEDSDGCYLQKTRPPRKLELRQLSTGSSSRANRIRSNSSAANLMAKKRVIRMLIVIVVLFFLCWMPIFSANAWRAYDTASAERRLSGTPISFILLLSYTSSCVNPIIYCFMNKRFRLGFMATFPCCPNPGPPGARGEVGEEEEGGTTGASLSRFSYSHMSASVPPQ
Description: as §1

[4] = target: δ [DOP; delta opioid receptor] (Homo sapiens, UniProt P41143); test: Secondary pharmacology panel (87 targets); format: binding; conditions: test concentration 30 µM
Chain of δ [DOP; delta opioid receptor] (P41143 whole entry): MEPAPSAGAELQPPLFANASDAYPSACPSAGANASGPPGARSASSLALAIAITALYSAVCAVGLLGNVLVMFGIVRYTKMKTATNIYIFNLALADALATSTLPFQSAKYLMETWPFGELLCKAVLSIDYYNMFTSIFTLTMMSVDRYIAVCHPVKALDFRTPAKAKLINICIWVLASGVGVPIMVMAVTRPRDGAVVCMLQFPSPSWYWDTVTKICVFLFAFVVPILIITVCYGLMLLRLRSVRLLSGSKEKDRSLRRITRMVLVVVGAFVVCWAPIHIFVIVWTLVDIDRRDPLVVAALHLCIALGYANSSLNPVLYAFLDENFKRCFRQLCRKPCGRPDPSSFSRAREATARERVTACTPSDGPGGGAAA
Description: as §1

FABP3 = FABP3 (Homo sapiens, UniProt P05413); test: Fluorescence displacement binding assay (DAUDA probe)
Chain of FABP3 (P05413 whole entry, species assumed): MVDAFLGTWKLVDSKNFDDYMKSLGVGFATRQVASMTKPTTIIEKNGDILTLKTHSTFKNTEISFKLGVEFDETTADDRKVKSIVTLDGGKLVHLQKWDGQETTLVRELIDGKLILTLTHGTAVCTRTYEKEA
Description: Purified FABPs were incubated with 11-(dansylamino)undecanoic acid (DAUDA) (FABP3, FABP5) or 8-anilino-1-naphthalenesulfonic acid (ANS) (FABP7) in the presence or absence of FABP inhibitors (.01–200 μM) in the binding assay buffer. FABP4 binding was assessed using a commercially available kit (Cayman Chemical, Ann Arbor). In all cases, arachidonic acid (10 μM) was included to account for maximal probe displacement. Loss of fluorescence intensity was monitored with an F5 Filtermax Multi-Mode Microplate Reader (Molecular Devices, Sunnyvale) using the following excitation and emission wavelengths (DAUDA: ex./em.= 360/535 nm; ANS: ex./em. = 360/465 nm). Following background subtraction, the fluorescence intensity values were normalised and analyzed via a one-site binding model using the GraphPadPrism (version 9.2). Ki values were determined using the following equation: Ki= IC50/(1 + ([Probe]/Kd).

With `COc1ccccc1[C@@H]1[C@H](C(=O)O)[C@@H](c2ccccc2OC)[C@H]1C(=O)OC1Cc2ccccc2C1` [ART26.12, (+)–3-Indan-2-yloxycarbonyl-2,4-bis(2-methoxyphenyl)cyclobutanecarboxylic acid] the “PWT response versus vehicle” value ([1]; 100 mg/kg PO co-administered with AM630 (CB2 antagonist) 3 mg/kg IP) was “not significantly different to vehicle”, the “PWT response versus vehicle” value ([1]; 100 mg/kg PO co-administered with AMG9810 (TRPV1 antagonist) 3 mg/kg IP) was “not significantly different to vehicle” and the “PWT response versus vehicle” value ([1]; 100 mg/kg PO co-administered with GW6471 (PPARα antagonist) 4 mg/kg IP) was “not significantly different to vehicle”. For the same molecule, the “PWT compared to ART26.12 alone” value ([1]; 100 mg/kg PO co-treated with AM251 (CB1 antagonist) 3 mg/kg IP, P < .05) was “significantly reduced PWT”, the “duration of acute attenuation of mechanical allodynia” value ([1]; established OIPN, acute oral dosing) was “up to 8 hours” and the “PWT compared to vehicle” value ([1]; established OIPN, 50 mg/kg (P < .05), 75 mg/kg (P < .05), 100 mg/kg (P < .001) PO, 30 minutes and 2 hours post-dose) was “significantly increased PWT”. The “PWT time course after single dose” value ([1]; established OIPN, 100 mg/kg PO, at 30 minutes, 2, 3, 4 and 8 hours) was “significantly increased”, the “PWT compared to vehicle-alone” value ([1]; mechanism study, 100 mg/kg PO, 30 minutes or 2 hours, P < .01) was “significantly increased PWT” and the “binding to CCK2 in secondary pharmacology screening” value [2] was “greater than 50%”. The “binding to cathepsin G in secondary pharmacology screening” value (cathepsin G) was “greater than 50%”, the “binding to CCK1 in secondary pharmacology screening” value [3] was “greater than 50%” and the “binding to δ (DOP) in secondary pharmacology screening” value [4] was “greater than 50%”. For the same molecule, the Ki (FABP3) was 71.3 ± 2.4 µM.
